Counter-ions that a name gives are not always drawn. Like-named read-outs stand apart in the source and are kept apart here.
Key:
[1] = target: T1, GST-tagged human Aurora B(AurB)/His-tagged human INCENP complex proteins (Homo sapiens, UniProt Q96GD4); experiment: Aurora B inhibitory activity (Method A, IMAP assay kit); type: biochemical; conditions: 40 μM ATP, 25° C., 45 minutes
T1 construct: GST; purchased Carna Biosciences, Inc

[2] = system: Human cervical cancer cells (HeLa S3); experiment: Cell growth inhibitory effect, WST-8 method; type: cell-based; conditions: HeLa S3, three days incubation, read-out: Cell growth inhibitory effect (HeLaS3) (IC50)
Protocol: Fetal calf serum (FCS) was purchased from Moregate Biotech, and DMEM medium was purchased from Invitrogen Corp. WST-8 was purchased from Kishida Chemical Co., Ltd.
(§1) Human cervical cancer cells (HeLa S3) were obtained from the American Type Culture Collection (ATCC).
Cells were suspended in a DMEM medium containing 10% FCS, and the cell suspension was dispensed to a 96-well plastic plate at a rate of 750 cells/100 microliters per well. The plate was incubated overnight in 5% CO2-95% air at 37° C. A drug was subjected to graded dilution in dimethylsulfoxide and further diluted with a DMEM medium containing 10% FCS. Then, the dilution was dispensed to the plate on which cells had been disseminated in advance, at a rate of 100 microliters per well. The plate was incubated for further three days in 5% CO2-95% air at 37° C. Cell growth after incubation was measured by the WST-8 method (H. Tominaga, et al., Anal. Commun., 36, 47-50 (1999)). Here, the WST-8 method refers to a method in which 20 microliters of a WST-8 reagent solution is added to each well, incubation is conducted at 37° C. for 60 minutes, the plate is stirred, and the amount of formazan produced is measured by a […] method to determine the inhibitory rate of the drug.

[3] = system: Human cervical cancer cells (HeLa S3); experiment: Effect by combined use of drugs in cells (docetaxel), WST-8 method; type: cell-based; conditions: HeLa S3, three days; for inhibition at 1 µM: compound 1.0 μM alone
Protocol: Fetal calf serum (FCS) was purchased from Moregate Biotech, DMEM medium from Invitrogen Corp., docetaxel (tradename: Taxere) from Sigma-Aldrich, Inc., and WST-8 from Kishida Chemical Co., Ltd.
as §1
Cells were suspended in a DMEM medium containing 10% FCS, and the cell suspension was dispensed to two 96-well plastic plates at a rate of 750 cells/100 microliters per well. The plates were incubated overnight in 5% CO2-95% air at 37° C. A drug was subjected to graded dilution in dimethylsulfoxide and further diluted with DMSO or with a DMEM medium containing 10% FCS and also containing 0.6 nM docetaxel. Then, the dilutions were each dispensed to one of the plates on which cells had been disseminated in advance, at a rate of 100 microliters per well. The final concentration of docetaxel at this stage was 0.3 nM. Also, the concentrations in the case of sole administration of the compound according to the invention were 0.003, 0.01, 0.03, 0.1, 0.3, 1, 3 and 10 μM. The plates were incubated for further three days in 5% CO2-95% air at 37° C. Cell growth after incubation was measured by the WST-8 method (H. Tominaga, et al., Anal. Commun., 36, 47-50 (1999)). Here, the WST-8 method refers to a method in which 20 microliters of a WST-8 reagent solution is added to each well, incubation is conducted at 37° C. for 60 minutes, the plate is stirred, and the amount of formazan produced is measured by a colorimetric method to determine the inhibitory rate of the drug. The growth inhibitory effects of docetaxel and of the compound according to the invention were determined, with the value obtained in sole treatment of DMSO being defined as 0%.

human Aurora A = target: T2, human Aurora A (Homo sapiens, UniProt O14965); experiment: Aurora A inhibitory activity (IMAP fluorescence polarization phosphorylation assay); type: biochemical; conditions: 20 μM ATP, 30° C., 120 minutes
T2 construct: His (N); made in house; host or cells: Escherichia coli BL21-CodonPlus(DE3)-RIL
T2 sequence (O14965 1-403): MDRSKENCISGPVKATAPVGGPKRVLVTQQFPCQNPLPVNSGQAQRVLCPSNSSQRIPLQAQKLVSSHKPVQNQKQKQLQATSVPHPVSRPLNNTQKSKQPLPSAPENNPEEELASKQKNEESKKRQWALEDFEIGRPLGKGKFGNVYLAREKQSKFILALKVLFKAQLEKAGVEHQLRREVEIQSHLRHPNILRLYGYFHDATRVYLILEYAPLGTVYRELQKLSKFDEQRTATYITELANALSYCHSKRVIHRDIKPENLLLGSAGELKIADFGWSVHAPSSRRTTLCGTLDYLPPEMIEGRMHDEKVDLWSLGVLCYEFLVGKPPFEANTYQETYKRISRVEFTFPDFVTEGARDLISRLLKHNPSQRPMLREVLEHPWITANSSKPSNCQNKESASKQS

[4] = compound 0.1 μM + docetaxel 0.3 nM
[5] = compound 0.3 μM + docetaxel 0.3 nM
[6] = Homo sapiens, HeLa S3, 72 h, compound 0.1 μM alone, read-out: Cell growth inhibitory effect by sole administration of the compound of Example (%)
[7] = Homo sapiens, HeLa S3, 72 h, compound 0.3 μM alone, read-out: Cell growth inhibitory effect by sole administration of the compound of Example (%)
[8] = Homo sapiens, HeLa S3, 72 h, read-out: Cell growth inhibitory effect by sole administration of the compound of Example (%)
[9] = compound 1.0 μM + docetaxel 0.3 nM

T1 sequence (Q96GD4 whole entry): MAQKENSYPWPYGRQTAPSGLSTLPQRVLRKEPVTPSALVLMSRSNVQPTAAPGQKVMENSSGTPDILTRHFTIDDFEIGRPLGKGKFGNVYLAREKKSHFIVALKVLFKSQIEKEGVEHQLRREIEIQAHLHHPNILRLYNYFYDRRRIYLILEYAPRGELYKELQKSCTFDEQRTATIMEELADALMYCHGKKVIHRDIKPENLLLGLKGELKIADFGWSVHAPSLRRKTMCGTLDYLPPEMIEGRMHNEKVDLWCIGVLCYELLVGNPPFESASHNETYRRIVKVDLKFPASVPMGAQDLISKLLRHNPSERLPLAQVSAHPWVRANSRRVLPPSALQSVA
T1 sequence (Q9NQS7 803-916 partner limits assumed): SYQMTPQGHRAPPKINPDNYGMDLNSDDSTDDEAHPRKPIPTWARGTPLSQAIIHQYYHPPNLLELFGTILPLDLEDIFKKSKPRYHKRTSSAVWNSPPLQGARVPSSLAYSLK

Molecule | IC50 [1] | IC50 [2] | Cell growth inhibitory effect by combined administration of docetaxel and the compound of Example (%) [3, 4] | Cell growth inhibitory effect by sole administration of the compound of Example (%) ([3]; compound 0.1 μM alone) | Cell growth inhibitory effect by combined administration of docetaxel and the compound of Example (%) [3, 5] | Cell growth inhibitory effect by sole administration of the compound of Example (%) ([3]; compound 0.3 μM alone) | IC50 (human Aurora A) | IC50 ([2]; Homo sapiens, 72 h) | inhibition at 0.1 µM [3, 6] | inhibition at 0.3 µM [3, 7] | inhibition at 0.03 µM ([3]; Homo sapiens, HeLa S3, 72 h, compound 0.03 μM alone, read-out: Cell growth inhibitory effect by sole administration of the compound of Example (%)) | Cell growth inhibitory effect by combined administration of docetaxel and the compound of Example (%) ([3]; compound 0.03 μM + docetaxel 0.3 nM) | inhibition at 1 µM [3, 8] | Cell growth inhibitory effect by combined administration of docetaxel and the compound of Example (%) [3, 9]
5-(trans-4-(3-chloro-2-fluorophenoxy)-1-((6-(1H-pyrazol-3-ylamino)pyrazin-2-yl)methyl)cyclohexyl)-1,3,4-oxadiazol-2(3H)-one [Example 29] | 670 nM | 670 nM | 79.0% | 11.3% | 92.9% | 39.9% | 0.19 nM |  |  |  |  |  |  | 
O=c1[nH]nc([C@]2(Cc3cccc(Nc4cc[nH]n4)n3)CC[C@@H](S(=O)(=O)c3cccc(Cl)c3Cl)CC2)o1 [Example 36, 5-(trans-4-((2,3-dichlorophenyl)sulfonyl)-1-((6-(1H-pyrazol-3-ylamino)pyridin-2-yl)methyl)cyclohexyl)-1,3,4-oxadiazol-2(3H)-one trifluoroacetate] | 370 nM |  | 76.8% |  | 88.9% |  | 0.43 nM | 1130 nM | 2.6% | 32% |  |  |  | 
Fc1c(Cl)cccc1O[C@H]1CC[C@](Cc2cccc(Nc3cc[nH]n3)n2)(c2n[nH]c(=S)o2)CC1 [Example 24, 5-(trans-4-(3-chloro-2-fluorophenoxy)-1-((6-(1H-pyrazol-3-ylamino)pyridin-2-yl)methyl)cyclohexyl)-1,3,4-oxadiazole-2(3H)-thione] | 130 nM |  | 72.8% |  | 87.8% |  | 0.12 nM | 1150 nM | 0.5% | 25.4% |  |  |  | 
O=c1[nH]nc([C@]2(Cc3cccc(Nc4cc[nH]n4)n3)CC[C@@H]([S+]([O-])c3cccc(Cl)c3Cl)CC2)o1 (stereo partly drawn) [Example 35, 5-(trans-4-((2,3-dichlorophenyl)sulfinyl)-1-((6-(1H-pyrazol-3-ylamino)pyridin-2-yl)methyl)cyclohexyl)-1,3,4-oxadiazol-2(3H)-one trifluoroacetate] | 120 nM |  | 89.9% |  |  |  | 0.31 nM | 220 nM | 42.7% |  | 25.1% | 78.0% |  | 
Cl.O=C(O)[C@]1(Cc2cccc(Nc3nccs3)n2)CC[C@@H](Oc2cccc(F)c2F)CC1 [Example 3, trans-4-(2,3-difluorophenoxy)-1-((6-(1,3-thiazol-2-ylamino)pyridin-2-yl)methyl)cyclohexanecarboxylic acid hydrochloride] | 59 nM |  |  |  | 74.1% |  | 0.12 nM | 3950 nM |  | 5.4% |  |  | 26.9% | 90.4%
O=C(O)[C@]1(Cc2cccc(Nc3nccs3)n2)CC[C@@H](S(=O)(=O)c2cccc(Cl)c2Cl)CC1 [Example 32, trans-4-((2,3-dichlorophenyl)sulfonyl)-1-((6-(1,3-thiazol-2-ylamino)pyridin-2-yl)methyl)cyclohexanecarboxylic acid trifluoroacetate] | 70 nM |  | 88.6% |  | 94.0% |  | 0.15 nM | 590 nM | 6.3% | 40.8% |  |  |  | 
Cn1nc([C@]2(Cc3cccc(Nc4cc[nH]n4)n3)CC[C@@H](Oc3cccc(Cl)c3F)CC2)oc1=O [Example 26, 5-(trans-4-(3-chloro-2-fluorophenoxy)-1-((6-(1H-pyrazol-3-ylamino)pyridin-2-yl)methyl)cyclohexyl)-3-methyl-1,3,4-oxadiazol-2(3H)-one] | 800 nM |  |  |  | 67.3% |  | 1.4 nM | 3300 nM |  | 11.8% |  |  | 18.2% | 88.5%
NC(=O)[C@]1(Cc2cccc(Nc3nccs3)n2)CC[C@@H](Oc2cccc(Cl)c2F)CC1 [Example 8, trans-4-(3-chloro-2-fluorophenoxy)-1-((6-(1,3-thiazol-2-ylamino)pyridin-2-yl)methyl)cyclohexanecarboxamide] | 150 nM |  |  |  | 84.6% |  | 0.54 nM | 1260 nM |  | 12.2% |  |  | 49% | 95.0%

From patent publication US20100016335A1, “NOVEL AMINOPYRIDINE DERIVATIVES HAVING AURORA A SELECTIVE INHIBITORY ACTION” (priority 2006, published 2010)
